Patent publication US20110159111A1, “PHARMACEUTICAL COMBINATIONS” (priority 2006, published 2011)
pIC50: −log10 of the molar value. Read-outs that look alike come from different tables or passages of the source. Each block holds one compound with its values, some of them ahead of it.

Assays:
[1] = target: T1, PKG (Homo sapiens, UniProt Q13976); details: cited from earlier work
T1 sequence (Q13976 1-671): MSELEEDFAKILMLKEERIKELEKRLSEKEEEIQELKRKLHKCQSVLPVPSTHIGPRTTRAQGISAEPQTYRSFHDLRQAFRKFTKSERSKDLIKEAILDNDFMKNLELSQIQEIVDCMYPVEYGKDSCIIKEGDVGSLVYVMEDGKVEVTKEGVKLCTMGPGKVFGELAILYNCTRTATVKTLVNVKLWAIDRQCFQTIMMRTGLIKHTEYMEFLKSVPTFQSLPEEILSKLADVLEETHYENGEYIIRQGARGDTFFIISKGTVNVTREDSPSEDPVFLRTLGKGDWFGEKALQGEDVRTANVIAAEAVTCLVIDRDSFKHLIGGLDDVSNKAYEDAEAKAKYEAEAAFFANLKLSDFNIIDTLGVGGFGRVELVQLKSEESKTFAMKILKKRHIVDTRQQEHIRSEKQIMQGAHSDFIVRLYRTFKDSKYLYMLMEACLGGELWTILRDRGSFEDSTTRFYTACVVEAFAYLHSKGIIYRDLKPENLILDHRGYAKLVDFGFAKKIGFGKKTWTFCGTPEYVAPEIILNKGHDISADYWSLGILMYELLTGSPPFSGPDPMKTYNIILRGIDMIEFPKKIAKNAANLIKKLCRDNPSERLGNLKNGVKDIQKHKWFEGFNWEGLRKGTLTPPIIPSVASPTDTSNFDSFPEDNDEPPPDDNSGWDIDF

[2] = system: PKC; details: cited from earlier work
[3] = system: OVCAR-3 tumour cells; details: concentrations of 50 and 100 microM; cited from earlier work
[4] = system: P-glycoprotein-overexpressing subline of CCRF-CEM; details: cited from earlier work
[5] = antitumour agent; cited from earlier work
[6] = Solubilities of acid addition salts of 1-(2,6-difluorophenyl)-N-[3-(5-morpholin-4-ylmethyl-1H-benzimidazol-2-yl)-1H-pyrazol-4-yl]-urea; format: physicochemical
Method: This was carried out as described in Example 61 of WO 2006/070195 at pages 173 to 175 (the content of which is incorporated herein by reference).

[7] = Gravimetric vapour sorption (GVS); format: physicochemical; details: forms of 1-cyclopropyl-3-[3-(5-morpholin-4-ylmethyl-1H-benzoimidazol-2-yl)-1H-pyrazol-4-yl]-urea; 25° C., 0-95% RH
Method: E. Gravimetric Vapour Sorption (GVS):
The sample size was ca. 10-25 mg. […] The sample was loaded and unloaded at room humidity and temperature (ca. 40% RH, 25° C.) and analysed afterwards by XRPD (using a Bruker AXS C2 GADDS system).

[8] = clinical studies; cited from earlier work
[9] = system: Chronic Myeloid Leukaemia; details: CML patients in blast phase; cited from earlier work
[10] = system: chronic lymphocytic leukaemia; details: initial therapy, symptomatic CLL patients; cited from earlier work
[11] = system: human colon carcinoma cell line HCT 116; assay: Anti-proliferative activity, HCT-116 cell line (Set B); format: cell-based; details: HCT 116 (ECACC No. 91091005), Set B Example 1
Source text: Anti-proliferative Activity
See Example 15 of WO 2006/077426 at pages 100-101 (which is incorporated herein by reference).

[12] = system: Acute Promyelocytic Leukemia; details: APL patients; cited from earlier work
[13] = Thermogravimetric analysis (TGA); format: physicochemical; details: heated at 10° C./min
Method: Approximately 5 mg of sample (accurately weighed) was placed into a platinum TGA pan and loaded into a TGA 7 gravimetric analyser. The sample under study was then heated at a rate of 10° C./min (from ambient to 300° C.) and the resulting change in weight monitored. A dry nitrogen purge gas at a flow rate of 20 ml/min was used to produce an inert atmosphere and prevent oxidation of the sample during heating. Prior to analysis the instrument was weight calibrated using a 100 mg reference standard and temperature calibrated using an Alumel reference standard (using the Curie point transition temperature).

[14] = Vapour sorption/desorption analysis (IgaSorp balance); format: physicochemical
Method: Approximately 20 mg of sample was placed into a wire-mesh vapour sorption balance pan and loaded into an ‘IgaSorp’ vapour sorption balance (Hiden Analytical Instruments) held at 25+/−0.1° C. The sample was then dried by maintaining a 0% humidity environment (using mass flow control apparatus) until no further weight change was recorded. Subsequently, the sample was then subjected to a ramping profile from 0-90% relative humidity (% RH) at 10% RH increments, maintaining the sample at each step until equilibration had been attained (99.5% step completion).
Upon reaching equilibration, the % RH within the apparatus was ramped to the next step and the equilibration procedure repeated. After completion of the sorption cycle, the sample was then dried using the same procedure. The weight change during the sorption/desorption cycles was then monitored, allowing for the hygroscopic nature of the sample to be determined.

Compound: O=S(=O)(NCCNCC=C(c1ccccc1)c1ccccc1)c1cccc2cnccc12 [NL-71-101]
pIC50 [1]: 4.44
pIC50 [2]: 3.98
apoptosis [3]: induced apoptosis

Compound: C/C1=C/C[C@@H](/C(C)=C/c2csc(C)n2)OC(=O)C[C@H](O)C(C)(C)C(=O)[C@H](C)[C@@H](O)[C@@H](C)CCC1 [desoxyepothilone B]
pIC50 [4]: 7.77

Compound: CCN[C@H]1CO[C@@H](O[C@H]2[C@H](O[C@H]3C#C/C=C\C#C[C@]4(O)CC(=O)C(NC(=O)OC)=C3/C4=C\CSSSC)O[C@H](C)[C@@H](NO[C@H]3C[C@H](O)[C@H](SC(=O)c4c(C)c(I)c(O[C@@H]5O[C@@H](C)[C@H](O)[C@@H](OC)[C@H]5O)c(OC)c4OC)[C@@H](C)O3)[C@@H]2O)C[C@@H]1OC [Calicheamicin]
potency relative to adriamycin [5]: over 1,000 times

solubility [6]: > 100 mg/mL
Compound: O=C(Nc1c[nH]nc1-c1nc2cc(CN3CCOCC3)ccc2[nH]1)Nc1c(F)cccc1F [esylate, 1-(2,6-difluorophenyl)-N-[3-(5-morpholin-4-ylmethyl-1H-benzimidazol-2-yl)-1H-pyrazol-4-yl]-urea]

Compound: C[C@H](O)C(=O)O.O=C(Nc1c[nH]nc1-c1nc2cc(CN3CCOCC3)ccc2[nH]1)NC1CC1 [L-lactate salt, 1-cyclopropyl-3-[3-(5-morpholin-4-ylmethyl-1H-benzoimidazol-2-yl)-1H-pyrazol-4-yl]-urea]
GVS isotherm behaviour [7]: does not display hygroscopic behaviour and does not form a hydrate

Compound: 1-(2,6-difluorophenyl)-N-[3-(5-morpholin-4-ylmethyl-1H-benzimidazol-2-yl)-1H-pyrazol-4-yl]-urea [D-glucuronate]
solubility ([6]; acid addition salts of 1-(2,6-difluorophenyl)-N-[3-(5-morpholin-4-ylmethyl-1H-benzimidazol-2-yl)-1H-pyrazol-4-yl]-urea, liquid carrier (e.g. water)): greater than 25 mg/ml

Compound: CCCCCCCCCCCCCCCCCCOP(=O)([O-])OC1CC[N+](C)(C)CC1 [KRX-0401]
half-life [8]: ~100 h

Compound: Cc1ccc(NC(=O)c2ccc(CN3CCN(C)CC3)cc2)cc1Nc1nccc(-c2cccnc2)n1 [imatinib, 4-[(4-methyl-1-piperazinyl)methyl]-N-[4-methyl-3-[[4-(3-pyridinyl)-2-ylpyridinyl]amino]-phenyl]benzamide methanesulfonate]
duration of remissions [9]: 2-6 months

Compound: Nc1nc(F)nc2c1ncn2[C@@H]1O[C@H](CO)[C@@H](O)[C@@H]1O [fludarabine]
duration of progression-free survival [10]: 33 months
rate of complete responses [10]: 27%

Compound: O=C(NC1CCNCC1)c1n[nH]cc1NC(=O)c1c(Cl)cccc1Cl [Example 1]
pIC50 [11]: > 4.70

Compound: CC1=C(/C=C/C(C)=C/C=C/C(C)=C/C(=O)O)C(C)(C)CCC1 [Tretinoin, all-trans retinoic acid]
remissions induced [12]: 64-100%

TGA significant event (thermally induced partial degradation prior to melt) ([13]; ambient to 300° C.): about 288 °C
TGA mass loss ([13]; up to 150° C., crystals from Example 5 Step 8): approximately 0.2%
weight loss during initial drying ([14]; 0% RH, 25° C.): approximately 0.01%
total weight increase upon equilibration ([14]; stepwise 0-90% RH, equilibration at 90% RH, 25° C.): 0.24%
Compound: CS(=O)(=O)N1CCC(NC(=O)c2n[nH]cc2NC(=O)c2c(Cl)cccc2Cl)CC1
hygroscopicity / hydrate formation ([14]; storage in elevated humidity conditions): physically stable with regard to hygroscopicity
